Results: ChEMBL document CHEMBL1201862, “PubChem BioAssay data set” (2004)
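Values below derive from 48-hour exposures of cells grown in 96-well plates, with endpoints linearly interpolated between the two concentrations bracketing the appropriate inhibition level. GI50 marks 50% less growth.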 The source made the active and inactive calls. Rule as the data show it: active = GI50 up to about 1.1 µM and inactive = higher.

Experiments:
Assay in all cases: growth of human tumour cells (NCI), 48 h
OVCAR-3 = tested on: OVCAR-3
M19-MEL = tested on: M19-MEL
HOP-18 = tested on: HOP-18
NCI-H226 = tested on: NCI-H226
HCC 2998 = tested on: HCC 2998
LOX IMVI = tested on: LOX IMVI
SK-MEL-2 = tested on: SK-MEL-2
MCF7 = tested on: MCF7
SF-539 = tested on: SF-539
DLD-1 = tested on: DLD-1
SK-MEL-28 = tested on: SK-MEL-28
DU-145 = tested on: DU-145
786-0 = tested on: 786-0
KM-20L2 = tested on: KM-20L2
HL-60 = tested on: HL-60
UACC-62 = tested on: UACC-62
UO-31 = tested on: UO-31
HT-29 = tested on: HT-29
MDA-N = tested on: MDA-N
Malme-3M = tested on: Malme-3M

Compound | GI50 (OVCAR-3) | GI50 (M19-MEL) | GI50 (HOP-18) | GI50 (NCI-H226) | GI50 (HCC 2998) | GI50 (LOX IMVI) | GI50 (SK-MEL-2) | GI50 (MCF7) | GI50 (SF-539) | GI50 (DLD-1) | GI50 (SK-MEL-28) | GI50 (DU-145) | GI50 (786-0) | GI50 (KM-20L2) | GI50 (HL-60) | GI50 (UACC-62) | GI50 (UO-31) | GI50 (HT-29) | GI50 (MDA-N) | GI50 (Malme-3M)
CCc1nc(N)nc(N)c1-c1ccc(Cl)c(N=[N+]=[N-])c1 | 13.4 µM (inactive) | 11.9 µM (inactive) | 0.916 µM (active) | 28.4 µM (inactive) | 8.22 µM (inactive) | 3.26 µM (inactive) | 17.4 µM (inactive) | 7.24 µM (inactive) | 4.65 µM (inactive) | 5.47 µM (inactive) | 15.4 µM (inactive) | 12.4 µM (inactive) | 3.8 µM (inactive) | 12.1 µM (inactive) |  |  |  |  |  | 
COC1C(N)C(OC2C(Oc3cccc4c(O)c5c(=O)oc6ccc(C)c7c(=O)oc(c34)c5c67)OC(C)C(O)C2(C)O)OC(C)C1O (stereo not drawn) | 0.108 µM (active) | 0.0166 µM (active) | 0.152 µM (active) | 0.0201 µM (active) | 0.11 µM (active) | < 0.0125 µM (active) | 0.0108 µM (active) | < 0.01 µM (active) | < 0.0154 µM (active) | 0.0206 µM (active) | 0.029 µM (active) | 0.187 µM (active) | < 0.0123 µM (active) | 0.0568 µM (active) | 0.0416 µM (active) | 0.0208 µM (active) | 0.0746 µM (active) | < 0.0168 µM (active) | 0.0743 µM (active) | < 0.0107 µM (active)
OCCCCCCOc1ccc(-c2cc(-c3ccccn3)nc(-c3ccccn3)c2)cc1 | 0.22 µM (active) | 0.253 µM (active) | 0.182 µM (active) | 0.104 µM (active) | 0.187 µM (active) | 0.117 µM (active) | 0.233 µM (active) | 0.0321 µM (active) | 0.143 µM (active) | 0.169 µM (active) | 0.248 µM (active) | 0.0716 µM (active) | 0.0944 µM (active) | 0.0897 µM (active) | 0.0853 µM (active) | 0.149 µM (active) | 0.202 µM (active) | 0.228 µM (active) | 0.526 µM (active) | 0.404 µM (active)
C=CCc1cc2cccc(OC)c2oc1=O | > 100 µM (inactive) | > 100 µM (inactive) | 73.6 µM (inactive) | > 100 µM (inactive) | > 100 µM (inactive) | 93.3 µM (inactive) | > 100 µM (inactive) |  | > 100 µM (inactive) | > 100 µM (inactive) | > 100 µM (inactive) |  | > 100 µM (inactive) | > 100 µM (inactive) | 34.8 µM (inactive) | > 100 µM (inactive) | 1.19 µM (inactive) | > 100 µM (inactive) |  | > 100 µM (inactive)
CCOC(OCC)C(CC)[Se]c1ccccc1 (stereo not drawn) | > 100 µM (inactive) | 19.3 µM (inactive) | 65.2 µM (inactive) | 27.3 µM (inactive) | 35.2 µM (inactive) | 5.82 µM (inactive) | > 100 µM (inactive) |  | > 100 µM (inactive) | > 100 µM (inactive) | > 100 µM (inactive) |  | 19.1 µM (inactive) | 19.5 µM (inactive) | 2.42 µM (inactive) | > 100 µM (inactive) | > 100 µM (inactive) | > 100 µM (inactive) |  | 5.02 µM (inactive)
